Key:
Assay in all cases: target protein degradation by immunoblotting (Experimental Example 6)
c-Abl = target: T1, c-Abl (Homo sapiens, UniProt P00519); assay type: cell-based; conditions: K562 cell line, 24 hours
T1 construct: as cell lines primarily expressing the target protein; endogenous in cells; host or cells: K562
Protocol: (§1) In order to evaluate the target proteion degradation efficacy by Examples 14 to 33 according the disclosure, the following experiment was conducted.
(§2) First, as cell lines primarily expressing the target protein, Human kidney-derived cancer cells, HEK293T (ATCC, CRL-3216), human prostate-derived cancer cells, LNcap (Korean Cell Line Bank, Korean Cell Line Research Foundation, KCLB No. 80018), mouse embryonic fibroblast, MEF (ATCC, SCRC-1008), human cervical cancer cells, HeLa (Korean Cell Line Bank, Korean Cell Line Research Foundation, KCLB No. 10002), human blood-derived cells, K562 (Korean Cell Line Bank, Korean Cell Line Research Foundation, KCLB No. 10243), human blood-derived cells, THP-1 (Korean Cell Line Bank, Korean Cell Line Research Foundation, KCLB No. 40202), human lung-derived cancer cells, A549 (Korean Cell Line Bank, Korean Cell Line Research Foundation, KCLB No. 10185), human breast-derived cancer cells, MCF7 (Korean Cell Line Bank, Korean Cell Line Research Foundation, KCLB No. 30022), human neuroblastoma, SH-SY5Y cell lines (Korean Cell Line Bank, Korean Cell Line Research Foundation, KCLB No. 22266), human pancreatic cancer cells, PANC-1 (Korean Cell Line Bank, Korean Cell Line Research Foundation, KCLB No. 21469) were cultured, respectively, in an incubator maintained at 5% carbon dioxide, using DMEM containing 10% FBS and 1% streptomycin/penicillin, RPMI1640, or MEM medium, and then the respective cells were dispensed in 12-well plate. Additional incubation was performed for 24 hours to ensure that each cell completely fixed to the surface of the plate.
(§3) In order to confirm whether Compounds A to W of Examples 14 to 33 degrade the target protein respectively, the cultured cells were treated with the compound of each example for 24 hours and then collected.
(§4) In this case, HEK293T, which is human kidney-derived cancer cells, LNcap, which is human prostate-derived cancer cells, and MEF cell line, which is mouse embryonic fibroblasts, were treated with Example 14 (Compound A). HEK293T, which is human kidney-derived cancer cells, was treated with Example 15 (Compound B). HEK293T cell line, which is human kidney-derived cancer cells, and HeLa cell line, which is cervical-derived cancer cells, were treated with Example 16 (Compound C). HEK293T cell line, which is human kidney-derived cancer cells, was treated with Example 17 (Compound D). K562 cell line, which is human blood-derived cells, was treated with Example 18 (Compound E). HEK293T cell line, which is human kidney-derived cancer cells, was treated with Example 19 (Compound F). THP-1 cell line, which is human blood-derived cells, was treated with Example 20 (Compound G). A549 cell line, which is human lung-derived cancer cells, was treated with Example 21 (Compound H). A549 cell line, which is human lung-derived cancer cells, was treated with Example 22 (Compound I). MCF7 cell line, which is human breast-derived cancer cells, was treated with Example 23 (Compound J). HEK293T cell line, which is […], was treated with Example 24 (Compound L). SH-SY5Y, which is human neuroblastoma, and HeLa cell line, which is cervical-derived cancer cells, were treated with Example 25 (Compound M). THP-1 cell line, which is human blood-derived cells, was treated with Example 26 (Compound P). SH-SY5Y, which is human neuroblastoma, and HeLa cell line, which is cervical-derived cancer cells, were treated with Example 27 (Compound Q). SH-SY5Y, which is human neuroblastoma, and HeLa cell line, which is cervical-derived cancer cells, were treated with Example 28 (Compound R). HeLa cell line, a human cervical-derived cancer cell, was treated with Example 29 (Compound S). SH-SY5Y cell line, which is human neuroblastoma, was treated with Example 30 (Compound T). SH-SY5Y cell line, which is human neuroblastoma, was treated with Example 31 (Compound U). PANC-1 cell line, which is human pancreatic-derived cancer cells, was treated with Example 32 (Compound V). […]

BCR-Abl = target: T2, BCR-Abl (Homo sapiens, UniProt P00519); assay type: cell-based; conditions: K562 cell line, 24 hours
T2 construct: BCR (N-terminal fusion partner, P11274); endogenous in cells; host or cells: K562; the other entry of the earlier key: BCR (P11274, Breakpoint cluster region protein)
T2 sequence (P00519 with tags, fused parts or gaps): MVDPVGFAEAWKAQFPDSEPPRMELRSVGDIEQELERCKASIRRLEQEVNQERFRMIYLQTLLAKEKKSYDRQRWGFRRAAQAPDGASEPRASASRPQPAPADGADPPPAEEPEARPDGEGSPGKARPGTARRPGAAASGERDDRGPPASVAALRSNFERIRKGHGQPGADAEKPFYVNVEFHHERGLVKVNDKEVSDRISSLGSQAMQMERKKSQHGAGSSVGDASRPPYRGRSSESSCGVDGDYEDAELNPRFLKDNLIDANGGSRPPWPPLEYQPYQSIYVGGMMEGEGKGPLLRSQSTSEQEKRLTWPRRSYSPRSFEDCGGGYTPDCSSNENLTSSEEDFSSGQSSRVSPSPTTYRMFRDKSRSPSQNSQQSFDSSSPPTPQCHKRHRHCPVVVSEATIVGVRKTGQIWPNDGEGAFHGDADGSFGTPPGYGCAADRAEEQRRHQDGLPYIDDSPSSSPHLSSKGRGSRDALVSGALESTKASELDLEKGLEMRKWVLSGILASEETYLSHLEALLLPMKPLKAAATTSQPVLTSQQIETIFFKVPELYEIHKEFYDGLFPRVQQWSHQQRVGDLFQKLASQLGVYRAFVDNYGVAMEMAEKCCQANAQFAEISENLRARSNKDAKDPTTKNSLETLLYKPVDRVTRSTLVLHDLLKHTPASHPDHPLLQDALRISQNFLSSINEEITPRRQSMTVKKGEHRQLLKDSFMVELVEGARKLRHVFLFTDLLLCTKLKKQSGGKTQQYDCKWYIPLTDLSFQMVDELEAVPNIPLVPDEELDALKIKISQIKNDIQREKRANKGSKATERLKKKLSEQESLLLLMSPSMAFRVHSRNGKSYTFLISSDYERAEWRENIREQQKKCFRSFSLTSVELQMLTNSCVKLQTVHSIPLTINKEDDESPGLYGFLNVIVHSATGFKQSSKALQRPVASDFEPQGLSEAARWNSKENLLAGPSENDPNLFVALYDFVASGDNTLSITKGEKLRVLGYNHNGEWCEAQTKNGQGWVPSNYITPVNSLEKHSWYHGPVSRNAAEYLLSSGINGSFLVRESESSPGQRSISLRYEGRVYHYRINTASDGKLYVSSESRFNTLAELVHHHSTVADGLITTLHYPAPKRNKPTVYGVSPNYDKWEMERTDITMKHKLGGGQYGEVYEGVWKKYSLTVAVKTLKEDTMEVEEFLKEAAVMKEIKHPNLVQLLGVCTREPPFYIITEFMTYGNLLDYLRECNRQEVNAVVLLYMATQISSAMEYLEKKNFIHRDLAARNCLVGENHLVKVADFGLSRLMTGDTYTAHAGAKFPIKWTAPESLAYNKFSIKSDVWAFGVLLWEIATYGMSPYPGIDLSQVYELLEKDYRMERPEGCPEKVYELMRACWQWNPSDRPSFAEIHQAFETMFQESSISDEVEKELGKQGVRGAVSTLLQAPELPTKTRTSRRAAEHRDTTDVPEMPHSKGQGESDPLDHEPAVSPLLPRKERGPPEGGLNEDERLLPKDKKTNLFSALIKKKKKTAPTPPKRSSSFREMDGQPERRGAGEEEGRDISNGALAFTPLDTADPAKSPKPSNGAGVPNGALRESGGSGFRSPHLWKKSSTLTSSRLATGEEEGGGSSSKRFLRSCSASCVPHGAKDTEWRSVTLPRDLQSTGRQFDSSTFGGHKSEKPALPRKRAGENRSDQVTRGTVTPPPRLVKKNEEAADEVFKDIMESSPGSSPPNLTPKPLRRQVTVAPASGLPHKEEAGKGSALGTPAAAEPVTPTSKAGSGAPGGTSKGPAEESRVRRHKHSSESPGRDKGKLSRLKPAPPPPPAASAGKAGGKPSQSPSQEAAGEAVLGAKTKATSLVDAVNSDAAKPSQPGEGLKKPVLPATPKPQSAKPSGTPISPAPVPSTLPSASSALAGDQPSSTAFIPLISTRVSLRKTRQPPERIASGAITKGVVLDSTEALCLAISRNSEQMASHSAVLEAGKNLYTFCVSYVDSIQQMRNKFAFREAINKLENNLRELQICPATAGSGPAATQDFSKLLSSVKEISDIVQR
T2 sequence (Q13501 2-440 partner limits assumed): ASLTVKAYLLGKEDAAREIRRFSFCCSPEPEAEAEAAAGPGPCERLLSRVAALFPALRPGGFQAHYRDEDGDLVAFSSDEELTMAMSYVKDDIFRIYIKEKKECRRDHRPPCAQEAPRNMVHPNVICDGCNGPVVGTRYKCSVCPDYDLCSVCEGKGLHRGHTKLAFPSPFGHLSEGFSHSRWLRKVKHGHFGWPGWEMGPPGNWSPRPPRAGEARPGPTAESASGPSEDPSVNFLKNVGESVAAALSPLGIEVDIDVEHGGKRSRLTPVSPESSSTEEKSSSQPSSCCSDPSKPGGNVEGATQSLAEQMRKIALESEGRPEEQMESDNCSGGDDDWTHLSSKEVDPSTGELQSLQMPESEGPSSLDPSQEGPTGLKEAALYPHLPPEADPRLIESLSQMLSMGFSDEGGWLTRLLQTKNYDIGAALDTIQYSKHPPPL
Protocol: as §1, §2, §3, §4

CK2 = assay type: cell-based, human; conditions: HEK293T cell line, 24 hours
Protocol: as §1, §2, §3, §4

ERα = target: T3, ERα (Homo sapiens, UniProt P03372); assay type: cell-based; conditions: MCF7 cell line, 24 hours
T3 construct: as cell lines primarily expressing the target protein; endogenous in cells; host or cells: MCF7
T3 sequence (P03372 whole entry): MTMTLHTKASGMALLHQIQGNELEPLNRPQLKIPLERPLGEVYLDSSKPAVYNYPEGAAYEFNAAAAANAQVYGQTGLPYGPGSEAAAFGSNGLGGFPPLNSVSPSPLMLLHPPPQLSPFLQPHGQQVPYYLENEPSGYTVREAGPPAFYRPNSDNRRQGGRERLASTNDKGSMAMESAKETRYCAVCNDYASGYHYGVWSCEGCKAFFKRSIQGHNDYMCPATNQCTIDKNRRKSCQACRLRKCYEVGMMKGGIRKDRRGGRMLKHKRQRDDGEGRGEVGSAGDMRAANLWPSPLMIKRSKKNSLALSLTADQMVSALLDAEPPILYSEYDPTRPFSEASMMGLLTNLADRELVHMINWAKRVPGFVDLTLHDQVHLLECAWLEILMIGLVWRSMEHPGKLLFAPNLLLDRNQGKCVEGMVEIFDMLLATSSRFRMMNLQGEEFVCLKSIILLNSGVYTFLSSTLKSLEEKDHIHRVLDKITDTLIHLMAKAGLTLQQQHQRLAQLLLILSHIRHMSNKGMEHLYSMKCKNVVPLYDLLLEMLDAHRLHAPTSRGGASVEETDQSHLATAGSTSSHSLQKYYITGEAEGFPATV
Protocol: as §1, §2, §3, §4

Bcl-2 = assay type: cell-based, human; conditions: HEK293T cell line, 24 hours
Protocol: as §1, §2, §3, §4

T1 sequence (P00519 whole entry): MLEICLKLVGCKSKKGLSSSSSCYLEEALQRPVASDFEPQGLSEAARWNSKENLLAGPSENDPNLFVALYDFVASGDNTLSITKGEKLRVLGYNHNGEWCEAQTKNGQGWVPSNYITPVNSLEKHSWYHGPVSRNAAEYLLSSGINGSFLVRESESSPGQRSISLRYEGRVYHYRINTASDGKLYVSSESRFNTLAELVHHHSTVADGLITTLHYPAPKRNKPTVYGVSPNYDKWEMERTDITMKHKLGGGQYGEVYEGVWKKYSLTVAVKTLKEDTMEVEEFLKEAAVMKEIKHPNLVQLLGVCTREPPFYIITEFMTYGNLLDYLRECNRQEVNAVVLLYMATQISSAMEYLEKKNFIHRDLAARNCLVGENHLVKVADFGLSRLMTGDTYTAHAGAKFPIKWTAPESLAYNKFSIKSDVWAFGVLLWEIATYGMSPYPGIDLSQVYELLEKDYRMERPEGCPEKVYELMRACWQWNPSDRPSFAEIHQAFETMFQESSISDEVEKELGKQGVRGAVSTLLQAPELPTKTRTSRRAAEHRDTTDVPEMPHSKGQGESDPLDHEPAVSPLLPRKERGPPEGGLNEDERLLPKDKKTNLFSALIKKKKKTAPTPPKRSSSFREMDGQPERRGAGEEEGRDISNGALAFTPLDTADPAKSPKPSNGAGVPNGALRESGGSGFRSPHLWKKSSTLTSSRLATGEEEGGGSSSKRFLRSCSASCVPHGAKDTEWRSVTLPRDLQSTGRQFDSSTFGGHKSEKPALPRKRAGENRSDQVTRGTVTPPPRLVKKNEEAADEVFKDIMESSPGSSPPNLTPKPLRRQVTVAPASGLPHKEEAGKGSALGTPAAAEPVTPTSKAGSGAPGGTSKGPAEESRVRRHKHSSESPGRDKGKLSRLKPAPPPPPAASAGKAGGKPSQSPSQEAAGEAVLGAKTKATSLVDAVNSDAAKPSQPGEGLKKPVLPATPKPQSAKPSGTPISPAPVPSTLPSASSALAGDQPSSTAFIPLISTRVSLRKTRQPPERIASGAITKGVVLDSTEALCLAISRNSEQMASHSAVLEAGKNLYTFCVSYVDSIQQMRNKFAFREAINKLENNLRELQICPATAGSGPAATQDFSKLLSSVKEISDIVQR
T1 sequence (Q13501 2-440 partner limits assumed): as the sequence (Q13501 2-440 partner limits assumed) above

Cc1nc(Nc2ncc(C(=O)Nc3c(C)cccc3Cl)s2)cc(N2CCN(CCNCCOCCOCCNC[C@@H](O)COc3ccc(OCc4ccccc4)c(OCCCc4ccccc4)c3)CC2)n1 [Example 18, (R)-2-((6-(4-(15-(4-(benzyloxy)-3-(3-phenylpropoxy)phenoxy)-14-hydroxy-6,9-dioxa-3,12-diazapentadecyl)piperazin-1-yl)-2-methylpyrimidin-4-yl)amino)-N-(2-chloro-6-methylphenyl)thiazole-5-carboxamide]
degradation of target protein c-Abl (decrease in level vs Control) (c-Abl): can be degraded | degradation of target protein BCR-Abl (decrease in level vs Control) (BCR-Abl): can be degraded

O=C(O)c1ccc2c(c1)nc(Nc1cccc(NCCOCCOCCNC[C@@H](O)COc3ccc(OCc4ccccc4)c(OCCc4ccccc4)c3)c1)c1ccncc12 [Example 19, (R)-5-((3-((2-(2-(2-((3-(4-(benzyloxy)-3-phenethoxyphenoxy)-2-hydroxypropyl)amino)ethoxy)ethoxy)ethyl)amino)phenyl)amino)benzo[c][2,6]naphthyridine-8-carboxylic acid]
degradation of target protein CK2 (decrease in level vs Control) (CK2): can be degraded

CCN(CCCCNCCOCCOCCNCc1ccc(OCc2ccccc2)c(OCc2ccccc2)c1)CCOc1ccc(C(=O)c2c(-c3ccc(O)cc3)sc3cc(O)ccc23)cc1 [Example 23, (4-((1-(3,4-bis(benzyloxy)phenyl)-16-ethyl-5,8-dioxa-2,11,16-triazaoctadecan-18-yl)oxy)phenyl) (6-hydroxy-2-(4-hydroxyphenyl)benzo[b]thiophen-3-yl)methanone]
degradation of target protein ERα (decrease in level vs Control) (ERα): can be degraded

O=C(O)c1ccc2c(c1)nc(Nc1cc(Cl)cc(NCCOCCOCCOCCOCCOCCNC[C@@H](O)COc3ccc(OCc4ccc(F)cc4)c(OCc4ccc(F)cc4)c3)c1)c1ccncc12 [Example 24, (R)-5-((3-((21-(3,4-bis((4-fluorobenzyl)oxy)phenoxy)-20-hydroxy-3,6,9,12,15-pentaoxa-18-azahenicosyl)amino)-5-chlorophenyl)amino)benzo[c][2,6]naphthyridine-8-carboxylic acid]
degradation of target protein Bcl-2 (decrease in level vs Control) (Bcl-2): can be degraded
